The experiment concerns the target T1, PR (Homo sapiens, UniProt P06401).
T1 construct: expressed in transfected cells; host or cells: CHO-K1
T1 sequence (P06401 1-933): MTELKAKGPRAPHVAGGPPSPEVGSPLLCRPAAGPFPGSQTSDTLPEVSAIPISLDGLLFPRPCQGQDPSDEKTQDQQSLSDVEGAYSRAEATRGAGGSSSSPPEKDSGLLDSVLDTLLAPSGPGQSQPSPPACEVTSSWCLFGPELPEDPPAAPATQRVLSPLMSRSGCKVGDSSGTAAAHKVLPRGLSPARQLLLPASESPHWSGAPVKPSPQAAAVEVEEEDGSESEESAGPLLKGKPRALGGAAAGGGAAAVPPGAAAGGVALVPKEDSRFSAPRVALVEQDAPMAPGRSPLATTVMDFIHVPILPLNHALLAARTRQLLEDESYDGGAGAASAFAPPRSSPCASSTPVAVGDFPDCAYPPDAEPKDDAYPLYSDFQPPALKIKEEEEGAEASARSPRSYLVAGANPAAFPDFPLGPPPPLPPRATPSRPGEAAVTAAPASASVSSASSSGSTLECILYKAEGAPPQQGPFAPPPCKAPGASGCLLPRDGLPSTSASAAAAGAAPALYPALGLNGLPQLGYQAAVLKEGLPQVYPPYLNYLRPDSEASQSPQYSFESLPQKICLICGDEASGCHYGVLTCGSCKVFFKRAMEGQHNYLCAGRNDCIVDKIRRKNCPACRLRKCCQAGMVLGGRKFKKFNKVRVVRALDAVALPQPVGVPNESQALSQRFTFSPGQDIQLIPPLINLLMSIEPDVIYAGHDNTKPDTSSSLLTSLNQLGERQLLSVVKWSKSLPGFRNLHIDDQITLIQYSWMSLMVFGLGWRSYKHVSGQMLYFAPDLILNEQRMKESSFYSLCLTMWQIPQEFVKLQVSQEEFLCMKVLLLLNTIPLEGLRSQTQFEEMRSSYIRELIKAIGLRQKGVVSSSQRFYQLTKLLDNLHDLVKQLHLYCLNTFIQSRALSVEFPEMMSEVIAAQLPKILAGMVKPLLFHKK
Briefly: In Vitro PR Luciferase Reporter Assay (antagonist mode, CHO-K1-PR-MMTV-Luc reporter cells). The experiment is classed as cell-based. Particulars: antagonist assay with 20 nM Progesterone, 18-24 hours, read-out: PR antagonism IC50. From the text:
Example C: In Vitro PR Luciferase Reporter Assay
Cell Line: CHO-KI-PR-MMTV-Luc reporter cells
Culture Media: DMEM (with phenol red)+1000FBS
Assay Media: DMEM (without phenol red)+1000CSS
Culture CHO-Kl-PR-MMTV-Luc reporter cells in 15 cm plates in Culture Media at conditions less than 90% confluence.
Prepared 200×DMSO 1:8 serial dilutions of control and test compounds in 96-well non-sterile V bottom plate in DMSO, 8 serial dilutions for each compound.
Prepared 5× Assay Media diluted compound serial dilutions in 96-well non-sterile V bottom plate: Add 97.5 μL/well of Assay Media into 96-well then add 2.5 μl of 200× concentration of compounds and mix well.
Added compounds: 5 μl of assay media diluted compounds were added to appropriate wells and followed a quick spin (1000 rpm, 10 sec) to bring media and cells to the bottom of plate. The plates were covered with SealMate film to avoid evaporation and placed in 37° C. incubator for approximately 18-24 hours.
Read plates: Equilibrated appropriate amount of Promega One-Glo luciferase reagent to room temperature. Removed the plates from incubator and added 25 μL of One-Glo luciferase reagent/well by multiple channel pipette and read the plates with Tecan F500 luminometer within 3 minutes.
The ability of exemplary compounds disclosed herein to inhibit PR activity was quantified and the respective IC50 value was determined. Table 4 provides the cellular IC50 values of exemplary compounds disclosed herein.

The IC50 is the midpoint of a concentration-inhibition curve.

Regarding `Cn1cc(S(=O)(=O)C[C@H]2CCC3=Cc4c(cnn4-c4ccc(F)cc4)C[C@]3(C(=O)c3cc(C(F)(F)F)ccn3)C2)cn1` (single isomer, unassigned) [Example 118], the IC50 is above 5 µM.
Next, `CN([C@H]1CCC2=Cc3c(cnn3-c3ccc(F)cc3)C[C@]2(C(=O)c2cc(C(F)(F)F)ccn2)C1)S(=O)(=O)c1ccc(F)cc1` [Example 5, 4-Fluoro-N-((4aS,6S)-1-(4-fluorophenyl)-4a-(4-(trifluoromethyl)picolinoyl)-4,4a,5,6,7,8-hexahydro-1H-benzo[f]indazol-6-yl)-N-methylbenzenesulfonamide]: above 5 µM.
With `Cn1cc(S(=O)(=O)N(C2CC2)[C@H]2CCC3=Cc4c(cnn4-c4ccc(F)cc4)C[C@]3(C(=O)c3cc(C(F)(F)F)ccn3)C2)cn1` [Example 88, N-cyclopropyl-N-((4aS,6S)-1-(4-fluorophenyl)-4a-(4-(trifluoromethyl)picolinoyl)-4,4a,5,6,7,8-hexahydro-1H-benzo[f]indazol-6-yl)-1-methyl-1H-pyrazole-4-sulfonamide] the figure was above 5 µM; with `CN([C@H]1CCC2=Cc3c(cnn3-c3ccc(F)cc3)C[C@]2(C(=O)c2cc(C(F)(F)F)ccn2)C1)S(=O)(=O)c1ccn(C)n1` [Example 98, N-((4aS,6S)-1-(4-fluorophenyl)-4a-(4-(trifluoromethyl)picolinoyl)-4,4a,5,6,7,8-hexahydro-1H-benzo[f]indazol-6-yl)-N,1-dimethyl-1H-pyrazole-3-sulfonamide], 3.47 µM.
Next, `Cn1cc(S(=O)(=O)N(CC2CC2)[C@H]2CCC3=Cc4c(cnn4-c4ccc(F)cc4)C[C@]3(C(=O)c3cc(C(F)(F)F)ccn3)C2)cn1` [Example 103, N-(cyclopropylmethyl)-N-((4aS,6S)-1-(4-fluorophenyl)-4a-(4-(trifluoromethyl)picolinoyl)-4,4a,5,6,7,8-hexahydro-1H-benzo[f]indazol-6-yl)-1-methyl-1H-pyrazole-4-sulfonamide]: above 5 µM; `Cn1ccc(S(=O)(=O)N(CC(F)(F)F)[C@H]2CCC3=Cc4c(cnn4-c4ccc(F)cc4)C[C@]3(C(=O)c3cc(C(F)(F)F)ccn3)C2)n1` [Example 111, N-((4aS,6S)-1-(4-Fluorophenyl)-4a-(4-(trifluoromethyl)picolinoyl)-4,4a,5,6,7,8-hexahydro-1H-benzo[f]indazol-6-yl)-1-methyl-N-(2,2,2-trifluoroethyl)-1H-pyrazole-3-sulfonamide]: above 5 µM; `Cn1ccc(S(=O)(=O)[C@H]2CCC3=Cc4c(cnn4-c4ccc(F)cc4)C[C@]3(C(=O)c3cc(C(F)(F)F)ccn3)C2)n1` [Example 113, ((4aS,6S)-1-(4-Fluorophenyl)-6-((1-methyl-1H-pyrazol-3-yl)sulfonyl)-1,4,5,6,7,8-hexahydro-4aH-benzo[f]indazol-4a-yl)(4-(trifluoromethyl)pyridin-2-yl)methanone]: above 5 µM.
Consider `Cn1ccc(S(=O)(=O)N(C2CC2)[C@H]2CCC3=Cc4c(cnn4-c4ccc(F)cc4)C[C@]3(C(=O)c3cc(C(F)(F)F)ccn3)C2)n1` [Example 138, N-cyclopropyl-N-((4aS,6S)-1-(4-fluorophenyl)-4a-(4-(trifluoromethyl)picolinoyl)-4,4a,5,6,7,8-hexahydro-1H-benzo[f]indazol-6-yl)-1-methyl-1H-pyrazole-3-sulfonamide], for which the IC50 was above 5 µM.
As for `O=C(c1ncc(C(F)(F)F)s1)[C@]12Cc3cnn(-c4ccc(F)cc4)c3C=C1CC[C@H](N(C1CC1)S(=O)(=O)c1ccc(F)cc1)C2` [Example 177, N-cyclopropyl-4-fluoro-N-((4aS,6S)-1-(4-fluorophenyl)-4a-(5-(trifluoromethyl)thiazole-2-carbonyl)-4,4a,5,6,7,8-hexahydro-1H-benzo[f]indazol-6-yl)benzenesulfonamide], the IC50 was above 5 µM.
With `Cn1ccc(S(=O)(=O)N(CC2CC2)[C@H]2CCC3=Cc4c(cnn4-c4ccc(F)cc4)C[C@]3(C(=O)c3ncc(C(F)(F)F)s3)C2)n1` [Example 179, N-(cyclopropylmethyl)-N-((4aS,6S)-1-(4-fluorophenyl)-4a-(5-(trifluoromethyl)thiazole-2-carbonyl)-4,4a,5,6,7,8-hexahydro-1H-benzo[f]indazol-6-yl)-1-methyl-1H-pyrazole-3-sulfonamide], the IC50 was above 5 µM.
Next, `CC(C)N([C@H]1CCC2=Cc3c(cnn3-c3ccc(F)cc3)C[C@]2(C(=O)c2cc(C(F)(F)F)ccn2)C1)S(=O)(=O)c1ccn(C)n1` [Example 186, N-((4aS,6S)-1-(4-fluorophenyl)-4a-(4-(trifluoromethyl)picolinoyl)-4,4a,5,6,7,8-hexahydro-1H-benzo[f]indazol-6-yl)-N-isopropyl-1-methyl-1H-pyrazole-3-sulfonamide]: above 5 µM; `CC(C)N(C(=O)c1cnn(C)c1)[C@H]1CCC2=Cc3c(cnn3-c3ccc(F)cc3)C[C@]2(C(=O)c2ncc(C(F)(F)F)s2)C1` [Example 211, N-((4aS,6S)-1-(4-fluorophenyl)-4a-(5-(trifluoromethyl)thiazole-2-carbonyl)-4,4a,5,6,7,8-hexahydro-1H-benzo[f]indazol-6-yl)-N-isopropyl-1-methyl-1H-pyrazole-4-carboxamide]: above 5 µM.
Take `Cn1ccc(S(=O)(=O)N(C2CC(F)(F)C2)[C@H]2CCC3=Cc4c(cnn4-c4ccc(F)cc4)C[C@]3(C(=O)c3cc(C(F)(F)F)ccn3)C2)n1` [Example 227, N-(3,3-difluorocyclobutyl)-N-((4aS,6S)-1-(4-fluorophenyl)-4a-(4-(trifluoromethyl)picolinoyl)-4,4a,5,6,7,8-hexahydro-1H-benzo[f]indazol-6-yl)-1-methyl-1H-pyrazole-3-sulfonamide]: the IC50 was above 5 µM.
Next, `O=C(c1cc(Cl)ccn1)[C@]12Cc3cnn(-c4ccc(F)cc4)c3C=C1CC[C@H](N(C1CC1)S(=O)(=O)c1ccc(F)cc1)C2` [Example 232, N-((4aS,6S)-4a-(4-chloropicolinoyl)-1-(4-fluorophenyl)-4,4a,5,6,7,8-hexahydro-1H-benzo[f]indazol-6-yl)-N-cyclopropyl-4-fluorobenzenesulfonamide]: above 5 µM.
For `Cn1cc(S(=O)(=O)N(CC(C)(C)O)[C@H]2CCC3=Cc4c(cnn4-c4ccc(F)cc4)C[C@]3(C(=O)c3cc(F)ccn3)C2)cn1` [Example 248, N-((4aS,6S)-1-(4-fluorophenyl)-4a-(4-fluoropicolinoyl)-4,4a,5,6,7,8-hexahydro-1H-benzo[f]indazol-6-yl)-N-(2-hydroxy-2-methylpropyl)-1-methyl-1H-pyrazole-4-sulfonamide], the IC50 is above 5 µM.
With `Cn1ccc(S(=O)(=O)N(C2CC(F)(F)C2)[C@H]2CCC3=Cc4c(cnn4-c4ccc(F)cc4)C[C@]3(C(=O)c3ncc(C(F)(F)F)s3)C2)n1` [Example 270, N-(3,3-difluorocyclobutyl)-N-((4aS,6S)-1-(4-fluorophenyl)-4a-(5-(trifluoromethyl)thiazole-2-carbonyl)-4,4a,5,6,7,8-hexahydro-1H-benzo[f]indazol-6-yl)-1-methyl-1H-pyrazole-3-sulfonamide] the figure was 3.6 µM; with `Cn1ccc(S(=O)(=O)N([C@H]2CCC3=Cc4c(cnn4-c4ccc(F)cc4)C[C@]3(C(=O)c3ncc(C(F)(F)F)s3)C2)[C@H]2C[C@@](C)(O)C2)n1` [Example 277, N-((4aS,6S)-1-(4-fluorophenyl)-4a-(5-(trifluoromethyl)thiazole-2-carbonyl)-4,4a,5,6,7,8-hexahydro-1H-benzo[f]indazol-6-yl)-N-((1s,3R)-3-hydroxy-3-methylcyclobutyl)-1-methyl-1H-pyrazole-3-sulfonamide], above 5 µM.

Source of the values: patent US20210122730A1, “GLUCOCORTICOID RECEPTOR MODULATORS” (ORIC Pharmaceuticals, Inc., priority 2017, published 2021).
